Experimental data published in publication PMC10176470, “Engaging a Non-catalytic Cysteine Residue Drives Potent and Selective Inhibition of Caspase-6” (Journal of the American Chemical Society, 2023).
Read-outs that look alike come from different tables or passages of the source.

Legend:
Assay type in all cases: cell-based
[1] = molecular target: proteins of HEK293T cells transiently overexpressing caspase-6 (Homo sapiens, UniProt P28838); settings: exp_ref Probe; protein LAP3 (P28838); analysis C6
Sequence of proteins of HEK293T cells transiently overexpressing caspase-6 (Homo sapiens, UniProt P28838) (P28838 whole entry): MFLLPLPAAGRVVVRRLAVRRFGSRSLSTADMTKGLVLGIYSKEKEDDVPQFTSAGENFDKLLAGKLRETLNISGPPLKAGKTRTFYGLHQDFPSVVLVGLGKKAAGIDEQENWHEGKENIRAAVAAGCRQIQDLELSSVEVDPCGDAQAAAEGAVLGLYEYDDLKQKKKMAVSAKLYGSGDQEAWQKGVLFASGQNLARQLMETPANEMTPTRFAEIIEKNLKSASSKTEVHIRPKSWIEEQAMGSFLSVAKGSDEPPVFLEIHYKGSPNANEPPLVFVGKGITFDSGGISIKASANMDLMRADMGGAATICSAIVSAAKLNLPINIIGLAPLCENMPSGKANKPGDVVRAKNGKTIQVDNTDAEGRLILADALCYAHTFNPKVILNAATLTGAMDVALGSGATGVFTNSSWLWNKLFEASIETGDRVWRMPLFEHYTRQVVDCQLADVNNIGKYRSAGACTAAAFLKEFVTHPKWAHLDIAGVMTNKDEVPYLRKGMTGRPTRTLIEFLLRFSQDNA

[2] = molecular target: T1, proteins of HEK293T cells transiently overexpressing caspase-6 (Homo sapiens, UniProt P05165)
T1 sequence (P05165 53-728): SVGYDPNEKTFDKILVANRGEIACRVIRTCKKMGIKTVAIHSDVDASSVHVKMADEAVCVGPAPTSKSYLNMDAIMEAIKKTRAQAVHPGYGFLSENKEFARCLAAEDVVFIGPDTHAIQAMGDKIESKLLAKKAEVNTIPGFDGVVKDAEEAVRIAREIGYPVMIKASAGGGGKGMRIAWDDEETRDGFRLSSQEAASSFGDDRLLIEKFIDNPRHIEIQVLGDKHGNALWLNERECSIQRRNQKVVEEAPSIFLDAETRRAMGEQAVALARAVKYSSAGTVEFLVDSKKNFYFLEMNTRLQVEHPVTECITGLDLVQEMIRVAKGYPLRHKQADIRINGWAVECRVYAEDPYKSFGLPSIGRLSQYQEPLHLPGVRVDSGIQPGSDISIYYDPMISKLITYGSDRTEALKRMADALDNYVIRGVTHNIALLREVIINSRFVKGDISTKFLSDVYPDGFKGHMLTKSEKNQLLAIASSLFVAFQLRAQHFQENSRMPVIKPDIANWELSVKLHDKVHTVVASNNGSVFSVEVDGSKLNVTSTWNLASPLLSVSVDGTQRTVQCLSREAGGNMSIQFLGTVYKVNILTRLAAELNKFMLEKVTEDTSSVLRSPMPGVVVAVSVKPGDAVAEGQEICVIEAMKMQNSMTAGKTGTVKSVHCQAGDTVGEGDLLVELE

[3] = molecular target: proteins of HEK293T cells transiently overexpressing caspase-6 (Homo sapiens, UniProt Q00765); settings: protein REEP5 (Q00765)
Sequence of proteins of HEK293T cells transiently overexpressing caspase-6 (Homo sapiens, UniProt Q00765) (Q00765 whole entry): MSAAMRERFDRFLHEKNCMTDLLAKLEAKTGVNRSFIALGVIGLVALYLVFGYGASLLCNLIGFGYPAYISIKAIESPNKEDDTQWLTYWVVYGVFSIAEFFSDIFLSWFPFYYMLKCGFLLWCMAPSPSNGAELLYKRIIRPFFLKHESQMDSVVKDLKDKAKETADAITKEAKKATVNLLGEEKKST

[4] = molecular target: proteins of HEK293T cells transiently overexpressing caspase-6 (Homo sapiens, UniProt Q14247); settings: exp_ref Probe; protein CTTN (Q14247); analysis C6
Sequence of proteins of HEK293T cells transiently overexpressing caspase-6 (Homo sapiens, UniProt Q14247) (Q14247 whole entry): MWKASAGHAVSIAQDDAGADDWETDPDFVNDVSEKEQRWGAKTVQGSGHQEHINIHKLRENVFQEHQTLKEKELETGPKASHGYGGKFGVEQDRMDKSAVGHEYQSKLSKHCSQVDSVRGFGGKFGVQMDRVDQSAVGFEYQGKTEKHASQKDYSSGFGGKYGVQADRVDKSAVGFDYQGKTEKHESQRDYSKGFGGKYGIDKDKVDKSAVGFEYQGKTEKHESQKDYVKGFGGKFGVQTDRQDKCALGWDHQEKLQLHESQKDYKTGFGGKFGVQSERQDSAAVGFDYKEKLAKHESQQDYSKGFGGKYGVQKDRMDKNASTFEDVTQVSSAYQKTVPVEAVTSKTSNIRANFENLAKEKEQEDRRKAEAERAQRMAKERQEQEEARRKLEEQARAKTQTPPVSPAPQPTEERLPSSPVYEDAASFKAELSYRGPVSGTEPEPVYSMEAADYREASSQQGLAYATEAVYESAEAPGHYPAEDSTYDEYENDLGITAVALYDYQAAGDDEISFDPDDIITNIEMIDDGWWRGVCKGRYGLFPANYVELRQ

[5] = molecular target: proteins of HEK293T cells transiently overexpressing caspase-6 (Homo sapiens, UniProt P12277); settings: protein CKB (P12277)
Sequence of proteins of HEK293T cells transiently overexpressing caspase-6 (Homo sapiens, UniProt P12277) (P12277 whole entry): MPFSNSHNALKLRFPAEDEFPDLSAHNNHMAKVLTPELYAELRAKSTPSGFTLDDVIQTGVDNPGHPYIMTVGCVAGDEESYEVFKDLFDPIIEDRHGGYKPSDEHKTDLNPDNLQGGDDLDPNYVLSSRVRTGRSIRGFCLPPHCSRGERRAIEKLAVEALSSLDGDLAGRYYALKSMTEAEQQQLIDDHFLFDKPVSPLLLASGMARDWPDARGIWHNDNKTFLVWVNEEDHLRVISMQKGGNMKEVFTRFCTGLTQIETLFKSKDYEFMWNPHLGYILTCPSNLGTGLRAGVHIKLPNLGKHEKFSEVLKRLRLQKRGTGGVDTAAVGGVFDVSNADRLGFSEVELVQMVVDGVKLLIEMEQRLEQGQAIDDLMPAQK

[6] = molecular target: proteins of HEK293T cells transiently overexpressing caspase-6 (Homo sapiens, UniProt Q15084); settings: exp_ref Probe; protein PDIA6 (Q15084); analysis C6
Sequence of proteins of HEK293T cells transiently overexpressing caspase-6 (Homo sapiens, UniProt Q15084) (Q15084 20-440): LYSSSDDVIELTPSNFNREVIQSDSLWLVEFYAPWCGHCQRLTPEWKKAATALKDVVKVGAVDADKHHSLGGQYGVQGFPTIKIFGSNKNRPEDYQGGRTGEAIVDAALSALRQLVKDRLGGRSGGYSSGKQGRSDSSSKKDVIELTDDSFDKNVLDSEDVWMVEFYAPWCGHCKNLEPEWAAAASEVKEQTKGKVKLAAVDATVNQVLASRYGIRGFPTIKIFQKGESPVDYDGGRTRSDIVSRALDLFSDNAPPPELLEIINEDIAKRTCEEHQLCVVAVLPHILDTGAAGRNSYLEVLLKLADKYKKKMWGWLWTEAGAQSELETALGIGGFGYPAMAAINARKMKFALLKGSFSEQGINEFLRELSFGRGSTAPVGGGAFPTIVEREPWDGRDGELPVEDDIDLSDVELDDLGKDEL

[7] = molecular target: proteins of HEK293T cells transiently overexpressing caspase-6 (Homo sapiens, UniProt P0DPI2); settings: exp_ref Probe; protein C21orf33 (P30042); analysis C6
Sequence of proteins of HEK293T cells transiently overexpressing caspase-6 (Homo sapiens, UniProt P0DPI2) (P0DPI2 42-268): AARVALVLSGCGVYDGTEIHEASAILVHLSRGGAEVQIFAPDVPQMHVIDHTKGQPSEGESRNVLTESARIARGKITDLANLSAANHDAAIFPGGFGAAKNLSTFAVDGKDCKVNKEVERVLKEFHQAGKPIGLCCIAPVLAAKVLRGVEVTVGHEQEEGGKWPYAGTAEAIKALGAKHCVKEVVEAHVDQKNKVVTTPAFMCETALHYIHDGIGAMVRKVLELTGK

[8] = molecular target: proteins of HEK293T cells transiently overexpressing caspase-6 (Homo sapiens, UniProt P14314); settings: Probe; protein PRKCSH P14314
Sequence of proteins of HEK293T cells transiently overexpressing caspase-6 (Homo sapiens, UniProt P14314) (P14314 15-528): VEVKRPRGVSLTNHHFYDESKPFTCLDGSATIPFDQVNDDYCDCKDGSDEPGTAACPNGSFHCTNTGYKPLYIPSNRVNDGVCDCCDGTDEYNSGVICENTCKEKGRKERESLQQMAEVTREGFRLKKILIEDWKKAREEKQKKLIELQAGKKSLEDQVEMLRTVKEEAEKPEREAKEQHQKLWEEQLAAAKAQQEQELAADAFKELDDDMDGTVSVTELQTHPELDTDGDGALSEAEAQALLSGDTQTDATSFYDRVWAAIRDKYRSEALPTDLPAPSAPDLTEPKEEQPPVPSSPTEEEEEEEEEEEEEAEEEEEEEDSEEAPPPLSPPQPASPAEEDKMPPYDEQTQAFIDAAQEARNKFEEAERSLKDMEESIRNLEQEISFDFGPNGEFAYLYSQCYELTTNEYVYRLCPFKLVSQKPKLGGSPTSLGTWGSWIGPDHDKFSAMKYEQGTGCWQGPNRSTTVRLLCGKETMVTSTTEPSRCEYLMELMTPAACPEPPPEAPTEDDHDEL

[9] = molecular target: T2, proteins of HEK293T cells transiently overexpressing caspase-6 (Homo sapiens, UniProt Q14697); settings: protein GANAB (Q14697)
T2 sequence (Q14697 29-944): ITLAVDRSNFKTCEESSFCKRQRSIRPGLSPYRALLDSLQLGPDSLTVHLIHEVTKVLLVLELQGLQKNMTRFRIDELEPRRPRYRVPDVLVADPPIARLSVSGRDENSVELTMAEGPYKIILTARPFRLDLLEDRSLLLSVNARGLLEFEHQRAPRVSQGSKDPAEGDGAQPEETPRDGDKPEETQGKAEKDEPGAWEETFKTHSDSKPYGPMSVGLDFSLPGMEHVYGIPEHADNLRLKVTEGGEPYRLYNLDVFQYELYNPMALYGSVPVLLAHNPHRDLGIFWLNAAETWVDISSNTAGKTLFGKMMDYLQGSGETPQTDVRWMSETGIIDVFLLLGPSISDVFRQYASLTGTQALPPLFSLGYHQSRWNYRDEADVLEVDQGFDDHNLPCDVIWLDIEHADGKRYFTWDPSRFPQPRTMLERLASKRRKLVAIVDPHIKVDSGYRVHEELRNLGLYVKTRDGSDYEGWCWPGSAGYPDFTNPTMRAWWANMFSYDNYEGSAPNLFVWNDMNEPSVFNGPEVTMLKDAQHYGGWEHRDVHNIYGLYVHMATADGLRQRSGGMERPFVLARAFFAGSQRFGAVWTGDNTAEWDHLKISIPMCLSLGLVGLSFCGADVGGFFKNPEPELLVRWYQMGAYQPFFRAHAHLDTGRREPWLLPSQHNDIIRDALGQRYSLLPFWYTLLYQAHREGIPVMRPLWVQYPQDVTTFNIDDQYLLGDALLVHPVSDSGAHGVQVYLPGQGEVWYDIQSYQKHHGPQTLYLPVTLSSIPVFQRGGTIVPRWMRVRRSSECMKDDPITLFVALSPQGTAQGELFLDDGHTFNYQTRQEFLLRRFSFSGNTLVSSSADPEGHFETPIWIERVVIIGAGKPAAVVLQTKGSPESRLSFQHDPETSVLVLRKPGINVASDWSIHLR

[10] = molecular target: proteins of HEK293T cells transiently overexpressing caspase-6 (Homo sapiens, UniProt P07737); settings: exp_ref Probe; protein PFN1 (P07737); analysis C6
Sequence of proteins of HEK293T cells transiently overexpressing caspase-6 (Homo sapiens, UniProt P07737) (P07737 whole entry): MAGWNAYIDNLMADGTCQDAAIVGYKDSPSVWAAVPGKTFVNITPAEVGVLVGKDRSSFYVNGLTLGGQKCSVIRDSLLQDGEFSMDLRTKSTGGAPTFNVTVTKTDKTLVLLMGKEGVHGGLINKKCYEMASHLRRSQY

[11] = molecular target: proteins of HEK293T cells transiently overexpressing caspase-6 (Homo sapiens, UniProt P08865); settings: exp_ref Probe; protein RPSA (P08865); analysis C6

## C#CCOc1ccc([C@@H]2C[C@@H](C(=O)Nc3ccc(OC(F)(F)F)cc3)CN(S(=O)(=O)C=C)C2)cc1 (relative stereo) [13-t]
[1]
  enrich.exp.med: 0.6337
[2]; Probe, protein PCCA P05165
  enrich.exp.med: -2.194
[2]; protein PCCA (P05165)
  enrich.exp.med.lin: 0.2185
  enrich.exp.med.log2: -2.194
[3]
  enrich.exp.med.lin: 12.9915
  enrich.exp.med.log2: 3.6995
[3]; Expt Probe, analysis C6
  enrich.exp.med.lin: 12.9915
  enrich.exp.med.log2: 3.6995
[3]; exp_ref Probe, analysis C6
  enrich.exp.med: 3.6995
[4]
  enrich.exp.med: -0.3871
[5]; exp_ref Probe, analysis C6
  enrich.exp.med: 0.5567
[5]
  enrich.exp.med.lin: 1.4709
  enrich.exp.med.log2: 0.5567
[6]
  enrich.exp.med: 0.9602
[7]
  enrich.exp.med: -0.3681
[8]
  enrich.exp.med: -0.8366
[9]; exp_ref Probe, analysis C6
  enrich.exp.med: -0.2903
[9]
  enrich.exp.med.lin: 0.8177
  enrich.exp.med.log2: -0.2903
[10]
  enrich.exp.med: -0.1003
[11]
  enrich.exp.med: -0.2936
